# Data from patent US20260215412A1, “AGROCHEMICAL FORMULATION” (priority 2023, published 2026).
# Tests used:
# [1] = Solubility of pydiflumetofen in solvents suitable for emulsion production; type: physicochemical
# Excerpt: The choice of solvent for an agrochemical EC formulation is important and dependent upon the individual active ingredient that is the solute. In addition, the choice of solvent for an emulsifiable concentrate formulation can have an impact on the physical stability, application properties, and biological performance of the agrochemical formulation. In this case the active ingredient is the fungicide pydiflumetofen or 3-difluoromethyl-1-methyl-1H-pyrazole-4-carboxylic acid methoxy-[1-methyl-2-(2,4,6-trichlorophenyl)-ethyl]-amide to give it its IUPAC name (the name “pydiflumetofen” is used herein interchangeably with the IUPAC name 3-difluoromethyl-1-methyl-1H-pyrazole-4-carboxylic acid methoxy-[1-methyl-2-(2,4,6-trichlorophenyl)-ethyl]-amide).
# [2] = Emulsion stability / emulsion quality testing upon dilution; type: physicochemical; details: for suitability as emulsifier for EC formulations of pydiflumetofen: sole surfactant in the test formulations (solo surfactant screens); for emulsion quality of two-way blends: non-ionic surfactant combined with anionic surfactant B^an in two-way blends
# Procedure: Test sample of EC formulations of 3-difluoromethyl-1-methyl-1H-pyrazole-4-carboxylic acid methoxy-[1-methyl-2-(2,4,6-trichlorophenyl)-ethyl]-amide were diluted in standard water samples of known hardness (Table 5) in crow receivers, which were then incubated overnight at 5° C. and 30° C.
# Emulsion quality was assessed visually after homogenising the samples through inversion, using a scale of 0 to 5 as shown in Table 7 below.
# Further visual assessments were carried out 0.5, 2 and 24 hours post homogenisation and the volume of any cream or oil recorded. After 24 hours, the samples were re-homogenised and number of inversions required for re-emulsification was recorded and the samples were re-incubated at 5 or 30 (as appropriate) and a final visual assessment, including by microscopy was carried out.
molecule,measurement,setting,value
"CON(C(=O)c1cn(C)nc1C(F)F)C(C)Cc1c(Cl)cc(Cl)cc1Cl (centres unmarked) [pydiflumetofen, 3-difluoromethyl-1-methyl-1H-pyrazole-4-carboxylic acid methoxy-[1-methyl-2-(2,4,6-trichlorophenyl)-ethyl]-amide]",Solubility of pydiflumetofen at 25° C. %,[1]; solvent Acetophenone,17.3%
same,Solubility of pydiflumetofen at 25° C. %,[1]; solvent Dimethyl lactamide,9.65%
same,Solubility of pydiflumetofen at 25° C. %,[1]; solvent Dowanol DPM,3.77%
same,Solubility of pydiflumetofen at 25° C. %,[1]; solvent Ethyl lactate,5.74%
same,Solubility of pydiflumetofen at 25° C. %,[1]; solvent Gamma butyrolactone,14.7%
same,Solubility of pydiflumetofen at 25° C. %,[1]; solvent Methyl benzoate,15.1%
same,Solubility of pydiflumetofen at 25° C. %,[1]; solvent Octan-1-ol,0.63%
same,Solubility of pydiflumetofen at 25° C. %,[1]; solvent Solvesso 200 ND/ULN,5.85%
same,Solubility of pydiflumetofen at 25° C. %,[1]; solvent THFA (Tetrahydrofurfuryl acetate),9.7%
same,Solubility of pydiflumetofen at 25° C. %,[1]; solvent Tributyl phosphate,6.18%
same,Solubility of pydiflumetofen at 25° C. %,[1]; solvent Triethyl phosphate,8.82%
same,Solubility of pydiflumetofen at 25° C. %,[1]; solvent Trimethylcyclohexanone,10.2%
Block copolymer of poyhrdroxystearic acid and polyalkylene glycol [C^ni],suitability as emulsifier for EC formulations of pydiflumetofen,[2],most promising
Castor oil ethoxylate [A^ni],emulsion quality of two-way blends,[2],better quality emulsions overall
POE (11)-synthetic primary C12/C15 alcohol [B^ni],emulsion quality of two-way blends,[2],better quality emulsions overall
same,suitability as emulsifier for EC formulations of pydiflumetofen,[2],most promising
Polyoxyethylene sorbitan monolaurate [D^ni],emulsion quality of two-way blends,[2],better quality emulsions overall
